Experimental data reported in patent US9328083B2, “2-aminated methylene or 2-esterified methylene tanshinone derivatives, and preparation method and application thereof” (HANGZHOU BENSHENG PHARMACEUTICAL CO., LTD., priority 2011, dated 2016).
Values after ≈ are worked out from the molar mass of the structure shown.

Columns and labels:
[1] = background statement; cited from earlier work
[2] = tested on: H9 (acute lymphoblastic leukemia, ALL); experiment: MTT growth inhibition of leukemia cells, 72 h; format: cell-based, human; settings: H9, 72 h
How it was run: (§1)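 Leukemia cells were seeded at 6000 per well in RPMI-1640 with 10% fetal bovine serum. Tanshinone I derivatives, from 10 mg/mL DMSO stocks diluted in medium, were added at various concentrations on the following day. After 72 h at 37 °C under 5% CO2, viable cells were measured by MTT.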

[3] = tested on: Kasumi-1 (acute myeloid leukemia M2 type, AML-M2); experiment: MTT growth inhibition of leukemia cells, 72 h; format: cell-based, human; settings: Kasumi-1, 72 h
How it was run: as §1

[4] = tested on: Jurkat (acute lymphoblastic leukemia, ALL); experiment: MTT growth inhibition of leukemia cells, 72 h; format: cell-based, human; settings: 72 h
How it was run: as §1

[5] = tested on: K562/adr (drug-resistant, chronic myeloid leukemia, CML); experiment: MTT growth inhibition of leukemia cells, 72 h; format: cell-based, human; settings: K562/ADR
How it was run: as §1

[6] = tested on: NB4 (acute promyelocytic leukemia, AML); experiment: MTT growth inhibition of leukemia cells, 72 h; format: cell-based, human; settings: NB4, 72 h
How it was run: as §1

[7] = tested on: SGC-7901 human gastric adenocarcinoma cells; settings: concentration dependent within a certain range, literature; cited from earlier work
[8] = tested on: tumor-bearing nude mice; settings: literature; cited from earlier work
[9] = tested on: RPMI8226 (multiple myeloma); experiment: MTT growth inhibition of multiple myeloma cells, 72 h; format: cell-based, human; settings: RPMI 8226, 72 h
How it was run: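 RPMI8226 myeloma cells, 6000 per well in 1640 medium with 10% FBS, exposed to compounds at a range of concentrations (diluted from 10 mg/mL DMSO stock) for 72 h at 37° C, 5% CO2. Viable cells then determined by MTT.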

[10] = tested on: CaES-17 (esophageal cancer cell); experiment: MTT growth inhibition of human solid tumor cells, 72 h; format: cell-based; settings: CaEs-17, 72 h
How it was run: (§2)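 Readout is viable cell concentration after exposure to graded doses of the 2-substituted methylene tanshinone I analogues. Plating used 4000 cells per well in serum-supplemented (10% FBS) high-glucose DMEM, with a 24 h pre-culture at 37° C under 5% CO2.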

[11] = tested on: Hela (human cervical cancer cell); experiment: as above; format: cell-based; settings: Hela, 72 h
How it was run: as §2

[12] = tested on: A549 (human lung cancer); experiment: as above; format: cell-based; settings: A549, 72 h
How it was run: as §2

[13] = tested on: Becap37 (human breast cancer cell); experiment: as above; format: cell-based; settings: Becap-37, 72 h
How it was run: as §2

[14] = tested on: RKO (human colon adenocarcinoma cell); experiment: as above; format: cell-based
How it was run: as §2

[15] = tested on: U87 MG (malignant glioma cell); experiment: as above; format: cell-based; settings: U87-MG, 72 h
How it was run: as §2

[16] = tested on: Hep-2 (laryngeal carcinoma); experiment: as above; format: cell-based; settings: HeP-2, 72 h
How it was run: as §2

[17] = tested on: PANC-1 (pancreatic cancer); experiment: as above; format: cell-based; settings: PANC-1, 72 h
How it was run: as §2

[18] = tested on: MGC 803 (human gastric cancer cell); experiment: as above; format: cell-based; settings: MGC-803, 72 h
How it was run: as §2

[19] = tested on: PC-3 (prostate cancer); experiment: as above; format: cell-based; settings: PC-3, 72 h
How it was run: as §2

[20] = tested on: Hep G2 (human liver cancer cell); experiment: as above; format: cell-based; settings: Hep G2, 72 h
How it was run: as §2

[21] = tested on: SK-OV-3 (ovarian cancer cell); experiment: as above; format: cell-based; settings: SK-OV-3, 72 h
How it was run: as §2

[22] = tested on: CNE (nasopharyngeal carcinoma cell); experiment: as above; format: cell-based
How it was run: as §2

[23] = tested on: MG63 (osteosarcoma); experiment: as above; format: cell-based; settings: MG-63, 72 h
How it was run: as §2

[24] = background statement; cited from earlier work; remark: listed apart in the source
[25] = tested on: Hep G2 cells; settings: in vitro, literature; cited from earlier work

## Cc1coc2c1C(=O)C(=O)c1c-2ccc2c(C)cccc12 [TA, 1,6-dimethyl-phenanthreno [1,2-b]furan-10,11-diketone, reference compound]
[1]
  in vivo bioavailability: low in vivo bioavailability
[2]
  IC50: 3.5 µg/mL (≈ 12.7 µM)
  IC90: 13.06 µg/mL (≈ 47.3 µM)
[3]
  IC50: 0.99 µg/mL (≈ 3.58 µM)
  IC90: 3.62 µg/mL (≈ 13.1 µM)
[4]
  IC50: 1.74 µg/mL (≈ 6.3 µM)
  IC90: 8.42 µg/mL (≈ 30.5 µM)
[5]
  IC50: 0.88 µg/mL (≈ 3.19 µM)
  IC90: 4.17 µg/mL (≈ 15.1 µM)
[6]
  IC50: 0.98 µg/mL (≈ 3.55 µM)
  IC90: 2.50 µg/mL (≈ 9.05 µM)
[7]
  growth of SGC-7901 cells cultured in vitro: significant inhibitory effect
[8]
  tumor growth in tumor-bearing nude mice: can inhibit the tumor growth in the mice
[9]
  IC50: 0.96 µg/mL (≈ 3.47 µM)
  IC90: 10.86 µg/mL (≈ 39.3 µM)
[10]
  IC50: 3.18 µg/mL (≈ 11.5 µM)
  IC90: 16.00 µg/mL (≈ 57.9 µM)
[11]
  IC50: 4 µg/mL (≈ 14.5 µM)
  IC90: >16 µg/mL
[12]
  IC50: 4.03 µg/mL (≈ 14.6 µM)
  IC90: 17.29 µg/mL (≈ 62.6 µM)
[13]
  IC50: 3.03 µg/mL (≈ 11 µM)
  IC90: >16 µg/mL
[14]
  IC50: 1.83 µg/mL (≈ 6.62 µM)
  IC90: >16 µg/mL
[15]
  IC50: 6.36 µg/mL (≈ 23 µM)
  IC90: 14.63 µg/mL (≈ 53 µM)
[16]
  IC50: 3.15 µg/mL (≈ 11.4 µM)
  IC90: >16 µg/mL
[17]
  IC50: 2.7 µg/mL (≈ 9.77 µM)
  IC90: >16 µg/mL
[18]
  IC50: 1.62 µg/mL (≈ 5.86 µM)
  IC90: 9.26 µg/mL (≈ 33.5 µM)
[19]
  IC50: 6.63 µg/mL (≈ 24 µM)
  IC90: 10.57 µg/mL (≈ 38.3 µM)
[20]
  IC50: 2.19 µg/mL (≈ 7.93 µM)
  IC90: 22.13 µg/mL (≈ 80.1 µM)
[21]
  IC50: >16 µg/mL
  IC90: >16 µg/mL
[22]
  IC50: 7.4 µg/mL (≈ 26.8 µM)
  IC90: >16 µg/mL
[23]
  IC50: 0.96 µg/mL (≈ 3.47 µM)
  IC90: >16 µg/mL
[24]
  solubility in water: poor solubility in water
[25]
  proliferation of Hep G2 cells: can inhibit the proliferation of Hep G2 cells
